Source: patent publication US10407414B2, “Mannose derivatives for treating bacterial infections” (priority 2015, dated 2019)

What was measured:
[1] = test system: bacterial strain LF82 binding to the glycoprotein BSA-(Mannose)3 (FimH antagonists); assay: Bacterial Binding Assay (BBA); format: cell-based, Escherichia coli; conditions: read-out: Bacterial Binding Assay IC50 ± SEM
Summary of the method: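 Luciferase-expressing E. coli LF82, grown overnight at 37 °C without shaking, added as 2×10^8 bacteria/mL suspension with compound in BSA/D-PBS binding buffer. Wells were coated with 0.5–2 μg/mL BSA-(Man)3 and BSA-blocked, with 40–75 min binding at room temperature. After washing, adherent bacteria were read by luciferase luminescence and IC50 derived.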

[2] = test system: AIEC LF82 strain on T84 intestinal epithelial cells; assay: Adhesion assay of AIEC LF82 strain on T84 intestinal epithelial cells (post-incubation test); format: cell-based, E. coli
Protocol: Residual adhesion is the ratio of level of colonization/decolonization of AIEC measured on cells, and is expressed in percentage. 100% corresponds to the control experiment (NT).
Adhesion Assays of AIEC LF82 Strain on T84 Intestinal Epithelial Cells
Compound 56 was evaluated for its ability to inhibit the adhesion of bacteria AIEC LF82 strain on T84 intestinal cells, in order to assess the therapeutic potential of the tested compounds in Crohn's Disease (CD) in particular. The following post-incubation test was used (also described in Brument et al. J. Med. Chem. 2013, 56, 5395-5406), wherein the tested compound is added after the bacteria are brought into contact with the cells. This test thus mimics a use of the compounds in curative treatment of pathologies associated with AIECs, in particular Crohn's disease.
E. coli strain LF82 isolated from an ileal biopsy of a CD patient was used as the AIEC reference strain. Bacteria were grown overnight in Luria-Bertani (LB) broth, and a bacterial suspension was prepared at a concentration of 6×10^6 bacteria/mL in DMEM/F12/SVF dec 10% medium for adhesion assays. The human intestinal cell line T84, purchased from American Type Culture Collection (ATCC, CCL-248), was maintained in an atmosphere containing 5% CO2 in the culture medium recommended by ATCC. […]

With `Cc1cc(=O)[nH]cc1-c1cc(C#C[C@H]2O[C@H](CO)[C@@H](O)[C@H](O)[C@@H]2O)c2[nH]ncc2c1` [Compound 56, 4-methyl-5-[7-[2-[(2R,3S,4R,5S,6R)-3,4,5-trihydroxy-6-(hydroxymethyl)tetrahydropyran-2-yl]ethynyl]-1H-indazol-5-yl]-1H-pyridin-2-one] the IC50 [1] was 200 ± 20 pM, the “decolonization of adherent bacteria” value ([2]; at 10 nM, compound added after infection of T84 cells with LF82, 3 h at 37° C.) was “about 50%” and the “activity for the decolonization of the LF82 AIEC from T84 cells” value ([2]; from a concentration of 100 nM, FIG. 1) was “potent activity”.
